Reference: article PMC3335988 (Neurochemistry international, 2011)
Counter-ions that a name gives are not always drawn. Like-named read-outs stand apart in the source and are kept apart here. Marks after values point to notes of the source that are not given here.

Tests used:
human GluN1/GluN2D [1] = molecular target: T1, human GluN1/GluN2D (Homo sapiens, UniProt O15399+Q05586); test: cell-based; type: cell-based
rat GluN1/GluN2C = rat GluN1/GluN2C (Rattus norvegicus, UniProt P35439+Q00961); type: cell-based; conditions: for nH (Hill slope): 30 µM glycine
human GluN1/GluN2C = human GluN1/GluN2C (Homo sapiens, UniProt Q05586+Q14957, INS1047EPP); test: cell-based; type: cell-based
human GluN1/GluN2B = human GluN1/GluN2B (Homo sapiens, UniProt Q05586+Q13224); test: cell-based; type: cell-based; conditions: for nH (Hill slope, inhibition) / nH (Hill slope) / EC50: human GluN1/GluN2B; for nH (Hill slope, inhibition): 100 µM glutamate plus 30 µM glycine; for nH (Hill slope, inhibition) / EC50: -40 mV
human GluN1/GluN2A = human GluN1/GluN2A (Homo sapiens, UniProt Q05586+Q12879); type: cell-based; conditions: for nH (Hill slope, inhibition): 100 µM glutamate plus 30 µM glycine
rat GluN1/GluN2D [2] = molecular target: T2, rat GluN1/GluN2D (Rattus norvegicus, UniProt P35439+Q62645); type: cell-based; conditions: for nH (Hill slope): 30 µM glycine
rat GluN1/GluN2A [3] = molecular target: T3, rat GluN1/GluN2A (Rattus norvegicus, UniProt P35439+Q00959); test: Two-electrode voltage-clamp recordings, recombinant receptors in Xenopus oocytes; type: cell-based; conditions: for nH (Hill slope, inhibition): 100 µM glutamate plus 30 µM glycine; for nH (Hill slope): 30 µM glycine
rat GluN1/GluN2B [4] = molecular target: T4, rat GluN1/GluN2B (Rattus norvegicus, UniProt P35439+Q00960); test: cell-based; type: cell-based; conditions: for nH (Hill slope, inhibition): 100 µM glutamate plus 30 µM glycine; for nH (Hill slope): 30 µM glycine
[5] = system: human and rat NMDA receptor subtypes; test: Two-electrode voltage-clamp, relative agonist efficacy across subtypes; type: cell-based; conditions: range over human and rat subtypes; same recording; 30 µM glycine
rat GluN1/GluN2A [6] = molecular target: T3, rat GluN1/GluN2A; conditions: HEK293 cells, 2 mM extracellular Ca2+, ref Vicini et al., 1998; cited from earlier work
rat GluN1/GluN2D [7] = molecular target: T2, rat GluN1/GluN2D; conditions: Table 2, ref Hansen and Traynelis, 2011; cited from earlier work
human GluN1/GluN2D [8] = molecular target: T1, human GluN1/GluN2D; conditions: HEK293 cells, 2 mM extracellular Ca2+, ref Hess et al., 1998; cited from earlier work
rat GluN1/GluN2B [9] = molecular target: T4, rat GluN1/GluN2B; conditions: HEK293 cells, 2 mM extracellular Ca2+, ref Vicini et al., 1998; cited from earlier work
[10] = rat GluN1/GluN2C, 100 µM glutamate plus 30 µM glycine, -40 mV
[11] = rat GluN1/GluN2D, 100 µM glutamate plus 30 µM glycine, -40 mV
[12] = human GluN1/GluN2D, 100 µM glutamate plus 30 µM glycine
[13] = rat GluN1/GluN2C, 100 µM glutamate plus 30 µM glycine
[14] = rat GluN1/GluN2D, 100 µM glutamate plus 30 µM glycine
[15] = human GluN1/GluN2D, 100 µM glutamate plus 30 µM glycine, -40 mV
[16] = human GluN1/GluN2C, 100 µM glutamate plus 30 µM glycine, -40 mV

T4 sequence (Q00960 27-1482, other chains not shown): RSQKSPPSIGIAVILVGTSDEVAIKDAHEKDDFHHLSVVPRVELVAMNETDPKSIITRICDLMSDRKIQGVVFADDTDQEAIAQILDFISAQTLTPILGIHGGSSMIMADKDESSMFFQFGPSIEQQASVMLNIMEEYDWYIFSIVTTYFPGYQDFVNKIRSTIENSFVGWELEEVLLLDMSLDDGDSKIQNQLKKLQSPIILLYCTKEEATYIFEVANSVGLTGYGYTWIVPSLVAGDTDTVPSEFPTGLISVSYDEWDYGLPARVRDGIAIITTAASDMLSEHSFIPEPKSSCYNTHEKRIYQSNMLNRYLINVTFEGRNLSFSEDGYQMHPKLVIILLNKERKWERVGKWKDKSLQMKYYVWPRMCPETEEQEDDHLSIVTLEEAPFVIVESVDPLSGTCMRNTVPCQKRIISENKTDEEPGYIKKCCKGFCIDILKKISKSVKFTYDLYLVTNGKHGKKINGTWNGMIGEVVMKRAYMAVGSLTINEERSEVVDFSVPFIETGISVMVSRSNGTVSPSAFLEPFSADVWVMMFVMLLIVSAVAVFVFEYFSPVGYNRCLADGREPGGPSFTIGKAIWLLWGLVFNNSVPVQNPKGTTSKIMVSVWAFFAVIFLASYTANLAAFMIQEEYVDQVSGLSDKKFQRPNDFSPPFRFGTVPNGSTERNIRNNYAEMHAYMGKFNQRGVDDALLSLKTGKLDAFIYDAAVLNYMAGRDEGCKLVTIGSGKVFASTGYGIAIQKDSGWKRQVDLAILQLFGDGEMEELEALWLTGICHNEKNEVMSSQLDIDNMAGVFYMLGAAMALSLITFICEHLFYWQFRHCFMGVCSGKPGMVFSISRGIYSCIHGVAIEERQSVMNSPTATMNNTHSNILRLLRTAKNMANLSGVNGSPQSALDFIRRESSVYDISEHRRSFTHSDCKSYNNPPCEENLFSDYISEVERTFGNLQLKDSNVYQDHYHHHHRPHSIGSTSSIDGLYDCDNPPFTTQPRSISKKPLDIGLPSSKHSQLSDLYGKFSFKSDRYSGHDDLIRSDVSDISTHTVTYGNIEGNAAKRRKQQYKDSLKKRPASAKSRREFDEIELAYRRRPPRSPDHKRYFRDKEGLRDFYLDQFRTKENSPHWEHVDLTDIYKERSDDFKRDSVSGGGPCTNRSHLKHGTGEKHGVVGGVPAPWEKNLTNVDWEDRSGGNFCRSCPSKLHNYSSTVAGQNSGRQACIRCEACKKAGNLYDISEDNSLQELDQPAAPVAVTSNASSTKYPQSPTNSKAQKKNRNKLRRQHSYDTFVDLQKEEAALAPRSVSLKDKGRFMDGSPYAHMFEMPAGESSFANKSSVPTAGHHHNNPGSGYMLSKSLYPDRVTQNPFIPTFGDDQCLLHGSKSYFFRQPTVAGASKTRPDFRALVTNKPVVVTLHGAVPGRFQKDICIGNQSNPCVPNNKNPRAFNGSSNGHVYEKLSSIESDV
Sequence of rat GluN1/GluN2C (Q00961 20-1237, other chains not shown): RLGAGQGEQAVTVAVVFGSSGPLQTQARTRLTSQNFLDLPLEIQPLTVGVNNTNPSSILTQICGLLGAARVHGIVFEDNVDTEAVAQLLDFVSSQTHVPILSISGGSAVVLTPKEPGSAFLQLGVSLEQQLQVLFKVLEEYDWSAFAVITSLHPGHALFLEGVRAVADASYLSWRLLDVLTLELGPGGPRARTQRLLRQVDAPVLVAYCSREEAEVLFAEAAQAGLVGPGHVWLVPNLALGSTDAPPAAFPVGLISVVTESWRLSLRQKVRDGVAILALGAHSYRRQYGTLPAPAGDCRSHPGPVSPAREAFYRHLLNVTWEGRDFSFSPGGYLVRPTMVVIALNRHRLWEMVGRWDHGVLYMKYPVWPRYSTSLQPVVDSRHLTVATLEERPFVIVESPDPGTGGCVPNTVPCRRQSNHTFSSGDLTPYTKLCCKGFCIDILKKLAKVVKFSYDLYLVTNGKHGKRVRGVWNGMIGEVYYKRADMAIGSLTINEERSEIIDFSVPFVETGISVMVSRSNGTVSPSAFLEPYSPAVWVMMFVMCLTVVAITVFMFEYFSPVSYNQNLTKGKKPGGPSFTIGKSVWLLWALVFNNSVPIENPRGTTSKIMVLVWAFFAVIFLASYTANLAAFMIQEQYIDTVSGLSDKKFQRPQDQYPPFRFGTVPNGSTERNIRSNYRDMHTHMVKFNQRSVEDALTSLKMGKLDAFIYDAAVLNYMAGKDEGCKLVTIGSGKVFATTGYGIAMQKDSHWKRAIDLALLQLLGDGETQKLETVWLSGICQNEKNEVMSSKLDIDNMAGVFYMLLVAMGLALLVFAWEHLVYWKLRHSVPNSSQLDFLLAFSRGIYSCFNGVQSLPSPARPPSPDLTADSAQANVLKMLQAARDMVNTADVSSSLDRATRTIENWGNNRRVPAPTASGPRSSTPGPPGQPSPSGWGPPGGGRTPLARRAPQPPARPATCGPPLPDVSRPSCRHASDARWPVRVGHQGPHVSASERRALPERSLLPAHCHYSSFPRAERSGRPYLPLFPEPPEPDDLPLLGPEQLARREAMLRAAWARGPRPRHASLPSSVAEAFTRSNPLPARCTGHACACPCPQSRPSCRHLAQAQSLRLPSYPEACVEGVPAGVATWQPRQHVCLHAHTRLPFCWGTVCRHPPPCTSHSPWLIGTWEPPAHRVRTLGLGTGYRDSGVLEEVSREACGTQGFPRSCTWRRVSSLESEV
Sequence of human GluN1/GluN2A (Q12879 23-1464, other chains not shown): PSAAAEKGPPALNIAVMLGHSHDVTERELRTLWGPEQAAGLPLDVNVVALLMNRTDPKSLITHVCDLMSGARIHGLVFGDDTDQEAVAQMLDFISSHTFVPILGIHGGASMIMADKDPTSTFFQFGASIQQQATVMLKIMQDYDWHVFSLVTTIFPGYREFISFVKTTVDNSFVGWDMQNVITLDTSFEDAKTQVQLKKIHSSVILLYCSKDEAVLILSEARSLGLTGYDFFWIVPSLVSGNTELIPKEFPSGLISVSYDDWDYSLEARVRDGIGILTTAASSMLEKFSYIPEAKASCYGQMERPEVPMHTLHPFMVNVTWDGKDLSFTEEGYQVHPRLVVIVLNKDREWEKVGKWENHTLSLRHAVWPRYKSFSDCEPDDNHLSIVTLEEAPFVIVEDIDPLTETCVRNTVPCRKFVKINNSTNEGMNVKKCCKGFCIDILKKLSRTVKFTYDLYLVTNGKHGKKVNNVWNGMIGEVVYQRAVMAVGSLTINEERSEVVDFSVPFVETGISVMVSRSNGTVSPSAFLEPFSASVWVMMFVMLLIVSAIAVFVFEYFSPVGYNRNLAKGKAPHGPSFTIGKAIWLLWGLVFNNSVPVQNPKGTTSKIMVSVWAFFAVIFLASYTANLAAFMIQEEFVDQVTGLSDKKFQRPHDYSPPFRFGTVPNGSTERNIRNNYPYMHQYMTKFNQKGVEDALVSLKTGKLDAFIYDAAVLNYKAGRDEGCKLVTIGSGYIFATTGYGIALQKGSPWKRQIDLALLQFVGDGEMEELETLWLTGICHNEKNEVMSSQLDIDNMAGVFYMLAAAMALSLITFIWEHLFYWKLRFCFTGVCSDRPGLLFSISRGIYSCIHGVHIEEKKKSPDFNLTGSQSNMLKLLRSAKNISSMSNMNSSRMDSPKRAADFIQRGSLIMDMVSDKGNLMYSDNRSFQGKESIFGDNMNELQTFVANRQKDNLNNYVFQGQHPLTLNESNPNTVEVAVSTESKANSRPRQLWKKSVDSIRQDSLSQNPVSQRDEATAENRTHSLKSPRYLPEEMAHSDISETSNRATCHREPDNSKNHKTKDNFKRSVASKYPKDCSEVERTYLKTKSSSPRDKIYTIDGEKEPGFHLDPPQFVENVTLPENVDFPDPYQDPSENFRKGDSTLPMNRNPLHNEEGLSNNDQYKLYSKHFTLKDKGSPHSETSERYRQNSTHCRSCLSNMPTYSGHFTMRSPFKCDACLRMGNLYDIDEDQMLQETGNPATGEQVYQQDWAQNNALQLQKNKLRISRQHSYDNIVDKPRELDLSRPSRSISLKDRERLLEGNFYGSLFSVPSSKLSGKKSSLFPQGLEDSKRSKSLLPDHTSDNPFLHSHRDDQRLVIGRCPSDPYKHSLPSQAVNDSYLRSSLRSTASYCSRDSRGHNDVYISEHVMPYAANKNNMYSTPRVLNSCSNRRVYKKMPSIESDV

In the case of `CN[C@]1(c2ccccc2Cl)CCCCC1=O` [(+)ketamine, S-(+)-ketamine hydrochloride], the IC50 (human GluN1/GluN2D [1]) is reported as 2.4 ± 0.1 µM, the “nH (Hill slope, inhibition)” value (human GluN1/GluN2D [1]) is reported as 0.9 and the “nH (Hill slope, inhibition)” value (rat GluN1/GluN2C; [10]) is reported as 1.0. The IC50 (human GluN1/GluN2C) was 0.79 ± 0.04 µM, the “nH (Hill slope, inhibition)” value (human GluN1/GluN2C) was 0.9 and the “nH (Hill slope, inhibition)” value (human GluN1/GluN2B) was 1.0. The “nH (Hill slope, inhibition)” value (human GluN1/GluN2A; -40 mV) was 1.0, the “IC50 fold lower at rat compared to corresponding human subtype” value (rat GluN1/GluN2D [2]; GluN1/GluN2D, rat vs human) was 1.7 fold and the “nH (Hill slope, inhibition)” value (rat GluN1/GluN2D [2]; [11]) was 1.0. The “nH (Hill slope, inhibition)” value (rat GluN1/GluN2A [3]; rat GluN1/GluN2A, -40 mV) was 1.0, the “IC50 fold lower at rat compared to corresponding human subtype” value (rat GluN1/GluN2B [4]; GluN1/GluN2B, rat vs human) was 1.6 fold and the “nH (Hill slope, inhibition)” value (rat GluN1/GluN2B [4]; rat GluN1/GluN2B, -40 mV) was 0.9.
For `COc1ccc(OCC2c3cc(OC)c(OC)cc3CCN2C(=O)c2cccc(Cl)c2)cc1` (centres unmarked) [CIQ, (3-chlorophenyl) [3,4-dihydro-6,7-dimethoxy-1-[(4-methoxyphenoxy)methyl]-2(1H)-isoquinolinyl]methanone], the “maximal potentiation compared to NMDA receptor currents in the absence of CIQ” value (human GluN1/GluN2D [1]; [12]) was 250 ± 10, the “nH (Hill slope, potentiation)” value (human GluN1/GluN2D [1]; [12]) was 1.3 and the “maximal potentiation compared to NMDA receptor currents in the absence of CIQ” value (rat GluN1/GluN2C; [13]) was 260 ± 30. The “nH (Hill slope, potentiation)” value (rat GluN1/GluN2C; [13]) was 1.1, the “nH (Hill slope, potentiation)” value (human GluN1/GluN2C; human GluN1/GluN2C, 100 µM glutamate plus 30 µM glycine) was 1.6 and the “maximal potentiation compared to NMDA receptor currents in the absence of CIQ” value (rat GluN1/GluN2D [2]; [14]) was 240 ± 20. For the same compound, the “nH (Hill slope, potentiation)” value (rat GluN1/GluN2D [2]; [14]) was 1.3.
For `CN[C@H](CC(=O)O)C(=O)O` [NMDA, N-methyl-D-aspartate], the EC50 (human GluN1/GluN2D [1]) was 6.7 ± 0.2 µM, the “nH (Hill slope)” value (human GluN1/GluN2D [1]) was 2.1 and the “nH (Hill slope)” value (rat GluN1/GluN2C; rat GluN1/GluN2C) was 1.4. For the same compound, the EC50 (rat GluN1/GluN2C; rat GluN1/GluN2C, continuous presence of 30 µM glycine, -40 mV) was 19 ± 2 µM, the “maximal activation compared to maximal activation by the full agonist glutamate” value [5] was 69–89% and the EC50 (human GluN1/GluN2C) was 19 ± 1 µM. The “nH (Hill slope)” value (human GluN1/GluN2C) was 1.2, the “nH (Hill slope)” value (human GluN1/GluN2B; 30 µM glycine) was 1.4 and the EC50 (human GluN1/GluN2B; continuous presence of 30 µM glycine) was 23 ± 2 µM. For the same compound, the “nH (Hill slope)” value (human GluN1/GluN2A; 30 µM glycine) was 1.3, the EC50 (human GluN1/GluN2A; continuous presence of 30 µM glycine, -40 mV) was 68 ± 3 µM and the “nH (Hill slope)” value (rat GluN1/GluN2D [2]; rat GluN1/GluN2D) was 1.7. For the same compound, the EC50 (rat GluN1/GluN2D [2]; rat GluN1/GluN2D, continuous presence of 30 µM glycine, -40 mV) was 7.9 ± 0.9 µM, the “nH (Hill slope)” value (rat GluN1/GluN2A [3]; rat GluN1/GluN2A) was 1.5 and the EC50 (rat GluN1/GluN2A [3]; rat GluN1/GluN2A, continuous presence of 30 µM glycine, -40 mV) was 71 ± 9 µM. For the same compound, the “nH (Hill slope)” value (rat GluN1/GluN2B [4]; rat GluN1/GluN2B) was 1.7 and the EC50 (rat GluN1/GluN2B [4]; rat GluN1/GluN2B, continuous presence of 30 µM glycine, -40 mV) was 21 ± 4 µM.
For `COc1ccc2nc(/C=C/c3cccc([N+](=O)[O-])c3)n(-c3ccc(C(=O)O)cc3)c(=O)c2c1` [QNZ46, (E)-4-(6-methoxy-2-(3-nitrostyryl)-4-oxoquinazolin-3(4H)-yl)-benzoic acid], the “nH (Hill slope, inhibition)” value (human GluN1/GluN2D [1]; [15]) was 1.0, the “IC50 fold higher at rat compared to human” value (rat GluN1/GluN2C; GluN1/GluN2C, rat vs human) was 1.2 fold and the “nH (Hill slope, inhibition)” value (rat GluN1/GluN2C; [10]) was 1.2. The “nH (Hill slope, inhibition)” value (human GluN1/GluN2C; [16]) was 1.0, the IC50 (human GluN1/GluN2B) was > 100 µM and the “nH (Hill slope, inhibition)” value (rat GluN1/GluN2D [2]; [11]) was 1.0. The IC50 (rat GluN1/GluN2B [4]) was > 100 µM.
In the case of `NC(=NCc1ccc(Cl)cc1)SCCCc1cnc[nH]1` [clobenpropit, N-(4-chlorobenzyl)-S-[3-(4(5)-imidazolyl)propyl]isothiourea dihydrobromide], the “nH (Hill slope, inhibition)” value (human GluN1/GluN2D [1]; [15]) is reported as 1.0, the “nH (Hill slope, inhibition)” value (rat GluN1/GluN2C; [10]) is reported as 0.8 and the “nH (Hill slope, inhibition)” value (human GluN1/GluN2C; [16]) is reported as 0.9. The “nH (Hill slope, inhibition)” value (human GluN1/GluN2B) was 1.0, the “nH (Hill slope, inhibition)” value (human GluN1/GluN2A; -40 mV) was 1.0 and the “nH (Hill slope, inhibition)” value (rat GluN1/GluN2D [2]; [11]) was 0.9. For the same compound, the “IC50 fold higher at rat compared to human” value (rat GluN1/GluN2A [3]; GluN1/GluN2A, rat vs human) was 1.9 fold and the “nH (Hill slope, inhibition)” value (rat GluN1/GluN2B [4]; rat GluN1/GluN2B, -40 mV) was 1.3.
In the case of `OC(CN1CCC(Cc2ccc(F)cc2)CC1)c1ccc(Cl)cc1` (stereo not drawn) [eliprodil, α-(4-chlorophenyl)-4-[(4-fluorophenyl)methyl]-1-piperidineethanol], the “nH (Hill slope, inhibition)” value (human GluN1/GluN2B) is reported as 1.3 and the “nH (Hill slope, inhibition)” value (rat GluN1/GluN2B [4]; rat GluN1/GluN2B, -40 mV) is reported as 1.2.
In the case of `N[C@@H](CCC(=O)O)C(=O)O` [glutamate, L-glutamic acid], the “nH (Hill slope)” value (human GluN1/GluN2D [1]) is given as 1.5, the “nH (Hill slope)” value (rat GluN1/GluN2C; rat GluN1/GluN2C) is given as 1.4 and the “τdeactivation glutamate (weighted time constant)” value (“τdeactivation glutamate” for short) (rat GluN1/GluN2A [6]) is given as 54 ^k ms. For the same compound, the “nH (Hill slope)” value (human GluN1/GluN2C) was 1.6, the “τdeactivation following removal of glutamate” value (rat GluN1/GluN2D [7]) was > 2 s and the “nH (Hill slope)” value (human GluN1/GluN2B; 30 µM glycine) was 1.8. The “nH (Hill slope)” value (human GluN1/GluN2A; 30 µM glycine) was 1.3, the “nH (Hill slope)” value (rat GluN1/GluN2D [2]; rat GluN1/GluN2D) was 1.5 and the “τdeactivation glutamate” value (human GluN1/GluN2D [8]) was 6300 ^a ms. The “nH (Hill slope)” value (rat GluN1/GluN2A [3]; rat GluN1/GluN2A) was 1.4, the “τdeactivation glutamate” value (rat GluN1/GluN2B [9]) was 287 ^k ms and the “nH (Hill slope)” value (rat GluN1/GluN2B [4]; rat GluN1/GluN2B) was 1.5.
In the case of `NCC(=O)O` [glycine], the EC50 (human GluN1/GluN2D [1]) is reported as 0.12 ± 0.01 µM, the “nH (Hill slope)” value (human GluN1/GluN2D [1]) is reported as 1.8 and the EC50 (human GluN1/GluN2C) is reported as 0.25 ± 0.01 µM. For the same compound, the “nH (Hill slope)” value (human GluN1/GluN2C) was 1.6, the “nH (Hill slope)” value (human GluN1/GluN2B; 100 µM glutamate) was 1.7 and the EC50 (human GluN1/GluN2B; continuous presence of 100 µM glutamate) was 0.29 ± 0.04 µM. For the same compound, the “nH (Hill slope)” value (human GluN1/GluN2A; 100 µM glutamate) was 1.3 and the “τdeactivation glycine (weighted time constant)” value (human GluN1/GluN2D [8]) was 1800 ^a ms.
For `CC(C(O)c1ccc(O)cc1)N1CCC(Cc2ccccc2)CC1` (stereo not drawn) [ifenprodil, (1R*,2S*)-erythro-2-(4-benzylpiperidino)-1-(4-hydroxyphenyl)-1-propanol hemitartrate], the “nH (Hill slope, inhibition)” value (human GluN1/GluN2B) was 1.1, the “nH (Hill slope, inhibition)” value (rat GluN1/GluN2A [3]; rat GluN1/GluN2A, -40 mV) was 1.2 and the “nH (Hill slope, inhibition)” value (rat GluN1/GluN2B [4]; rat GluN1/GluN2B, -40 mV) was 1.2.
With `CC12CC3CC(C)(C1)CC(N)(C3)C2` [memantine, memantine hydrochloride] the “nH (Hill slope, inhibition)” value (human GluN1/GluN2D [1]) was 0.9, the “nH (Hill slope, inhibition)” value (human GluN1/GluN2C) was 1.0 and the “nH (Hill slope, inhibition)” value (human GluN1/GluN2B) was 1.0. For the same compound, the “nH (Hill slope, inhibition)” value (human GluN1/GluN2A; -40 mV) was 1.1.
